SMILES strings stand for the structures.

The experiment has as its system HBsAg. Briefly: HBsAg assay (inhibition of HBsAg in HepG2.2.15 cells). It is filed as cell-based, hepatitis B virus. The note with it: Hepatitis B virus, HepG2.2.15, 144 h, read-out: sAg EC50, HepG2.2.15 cells; supernatant HBsAg by CLIA at day 6 after exposure of compounds. As for the experimental part: Inhibition of HBsAg was determined in HepG2.2.15 cells. Cells were maintained in culture medium containing 10% fetal calf serum, […], Glutamine, penicillin/streptomycin. Cells were seeded in 96-well collagen-coated plate at a density of 30,000 cells/well. Serially diluted compounds were added to cells next day at the final DMSO concentration of 0.5%. Cells were incubated with compounds for 2-3 days, after which medium was removed. Fresh medium containing compounds was added to cells for additional 3-4 days. At day 6 after exposure of compounds, supernatant was collected, the HBsAg immunoassay (microplate-based chemiluminescence immunoassay kits, CLIA, Autobio Diagnosics Co., Zhengzhou, China, Catalog #CL0310-2) was used to determine the level of HBsAg according to manufactory instruction. Dose-response curves were generated and the EC50 value (effective concentrations that achieved 50% inhibitory effect) were determined using XLfit software. In addition, cells were seeded at a density of 5,000 cells/well for determination of cell viability in the presence and absence of compounds by using CellTiter-Glo reagent (Promega).
Regarding `CCC1c2cc(OC)c(OC)cc2C(=O)N1c1cc(-c2ncccn2)ncn1` (centres unmarked) [Example 37, 2-([2,4′-Bipyrimidin]-6′-yl)-3-ethyl-5,6-dimethoxyisoindolin-1-one], the EC50 came to 290 nM.
Consider `CCCC1c2cc(OC)c(OC)cc2C(=O)N1c1ccnc(-c2ncccn2)n1` (centres unmarked) [Example 38, 2-([2,2′-Bipyrimidin]-4-yl)-5,6-dimethoxy-3-propylisoindolin-1-one], for which the EC50 is 10 nM.
In the case of `COc1cc2c(cc1OC)C(CC(C)C)N(c1ccnc(-c3ncccn3)n1)C2=O` (centres unmarked) [Example 39, 2-([2,2′-Bipyrimidin]-4-yl)-3-isobutyl-5,6-dimethoxyisoindolin-1-one] it was 2 nM; in that of `COc1cc2c(cc1OC)C(c1ccccc1)N(c1ccnc(-c3ncccn3)n1)C2=O` (centres unmarked) [Example 42, 2-([2,2′-Bipyrimidin]-4-yl)-5,6-dimethoxy-3-phenylisoindolin-1-one], 1 nM; in that of `COc1cc2c(cc1OC)C(C(C)(C)C)N(c1ccnc(-c3ncccn3)n1)C2=O` (centres unmarked) [Example 45, 2-([2,2′-Bipyrimidin]-4-yl)-3-(tert-butyl)-5,6-dimethoxyisoindolin-1-one], 3 nM.
To `COc1cc2c(cc1OC)C1(CC1)N(c1ccnc(-c3ncccn3)n1)C2=O` [Example 46, 2′-([2,2′-Bipyrimidin]-4-yl)-5′,6′-dimethoxyspiro[cyclopropane-1,1′-isoindolin]-3′-one] belongs 240 nM.
As to `COc1cc2c(cc1F)C1(CC1)N(c1ccnc(-c3ncccn3)n1)C2=O` [Example 47, 2′-([2,2′-Bipyrimidin]-4-yl)-6′-fluoro-5′-methoxyspiro[cyclopropane-1,1′-isoindolin]-3′-one], the EC50 amounted to 120 nM.
To `CCC1c2cc(F)c(OC)cc2C(=O)N1c1ccnc(-c2ncccn2)n1` (centres unmarked) [Example 48, 2-([2,2′-Bipyrimidin]-4-yl)-3-ethyl-5-fluoro-6-methoxyisoindolin-1-one] belongs 20 nM; to `O=C1c2c(F)cc(F)cc2CN1c1ccnc(-c2ncccn2)n1` [Example 60, 2-([2,2′-Bipyrimidin]-4-yl)-5,7-difluoroisoindolin-1-one], 850 nM; to `O=C1c2cc(F)c(F)cc2CN1c1ccnc(-c2ncccn2)n1` [Example 61, 2-([2,2′-Bipyrimidin]-4-yl)-5,6-difluoroisoindolin-1-one], 450 nM.
Regarding `COc1cc2c(cc1OC)C(=O)N(c1ccnc(-c3ncccn3)n1)C2` [Example 62, 2-([2,2′-Bipyrimidin]-4-yl)-5,6-dimethoxyisoindolin-1-one], the EC50 is 130 nM.
In the case of `COc1cc2c(cc1OC)C(=O)N(c1ccnc(-c3ncccn3)n1)CC2` [Example 63, 2-([2,2′-Bipyrimidin]-4-yl)-6,7-dimethoxy-3,4-dihydroisoquinolin-1(2H)-one] it was 520 nM; in that of `O=C1c2cc(F)cc(F)c2CCN1c1ccnc(-c2ncccn2)n1` [Example 64, 2-([2,2′-Bipyrimidin]-4-yl)-5,7-difluoro-3,4-dihydroisoquinolin-1(2H)-one], 5000 nM; in that of `COc1cc2c(cc1OC)CN(c1ccnc(-c3ncccn3)n1)C(=O)C2` [Example 65, 2-([2,2′-Bipyrimidin]-4-yl)-6,7-dimethoxy-1,4-dihydroisoquinolin-3(2H)-one], 5000 nM.
